Test results from patent publication US4748246A, “Pyrazolo(4,3-c)quinolines” (American Home Products Corporation, priority 1987, dated 1988).

Columns and labels:
[1] = test system: IL 1-induced release of neutral protease from rabbit articular chondrocytes; assay: inhibition of IL 1-induced release of neutral protease from rabbit articular chondrocytes (azocoll neutral protease assay); type: cell-based; settings: Oryctolagus cuniculus, Chondrocyte, human IL 1, 24 h, ± S.D., read-out: % Inhibition of Protease Secretion
Protocol: The ability of the compounds of the inventions to inhibit interleukin 1 is measured by the ability of the test compounds to inhibit the IL 1-induced release of neutral protease from rabbit articular chondrocytes.
This assay is carried out as follows:
Isolation of rabbit chondrocytes:
Male New Zealand White rabbits are anesthetized with 50 mg/kg of ketamine (i.m.) and killed by an intracardiac injection of 3 mls. of Nembutal. The knee joints of both legs are resected and the articular surfaces are exposed. Cartilage slices are obtained using a scalpel and are placed in a tissue culture dish (100 mm diameter) containing 10 mls of Hank's balanced salt solution (HBSS). The chondrocytes within the cartilage slices are then liberated by a series of enzyme digestions. The slices are incubated for 10 min. at 37° C. in 0.05% hyaluronidase (Sigma H-3884), rinsed with HBSS and incubated with 0.2% trypsin (Sigma T-2395) for 10 min. at 37° C. The slices are rinsed again and incubated for 10 mins. at 37° C. with 1.2% collagenase (Sigma C-5138). The slices are then rinsed again with HBSS and resuspended in 10 ml of Ham's F-12 medium containing 10% fetal bovine calf serum (FCS) and 0.2 % collagenase and incubated overnight at 37° C. in a 5% CO2 incubator. The next day, the medium containing the digested cartilage fragments and liberated chondrocytes is transferred to a 15 ml centrifuge tube and the cells are collected by centrifugation and washed twice and resuspended in Ham's F-12 medium. The cells are then plated into 24-well tissue culture plates (2×10^5 cells/well) and incubated at 37° C. until confluent (usually 4-6 days).
Stimulation of chondrocytes and drug treatment:
The confluent chondrocytes are rinsed twice with serum-free Ham's F-12 medium and 1 ml is added to each well. Fifty μl of purified human IL 1 (100 Units/ml; Genzyme Corporation, Boston, MA) is then added to stimulate these cells to secrete neutral protease. To measure drug effects, the cells are treated with test compound 10 min. prior to addition of IL 1. The standard screening dose is 10 μM. Twenty-four hours after IL 1 stimulation, supernatant fluids are collected and assayed for neutral protease activity.
The neutral protease activity of chondrocyte supernatant fluids is determined by their ability to degrade an insoluble protease substrate, azocoll (Sigma). Supernatants are treated for 10 min. at room temperature with 350 μM p-aminophenylmurcuric acetate to activate the latent enzyme. Three hundred μl of supernatant is then mixed with 500 μl of a 20 mg/ml suspension of azocoll and incubated at 37° C. for 18-24 hrs. with gentle rocking. The mixtures are centrifuged and the amount of substrate hydrolyzed is determined by measuring the absorbance of the supernatant at 520 nm.
Drug effects are calculated as the % change in enzyme activity (absorbance)by supernatants from drug-treated chondrocytes relative to enzyme activity of supernatants from vehicle-treated chondrocytes as follows:
% Inhibition of Protease Secretion= [formula]

[2] = test system: rat carrageenan paw edema; assay: rat carrageenan paw edema assay; type: in vivo, rat (male Sprague-Dawley); settings: for % Inhibition of edema at 50 mg/kg (peroral): 1 hour prior to carrageenan, edema at 3 hours; for ED50: Rattus norvegicus, po, 3 h, read-out: Oral ED50 (95% C.L.)
Protocol: The compounds of the invention are tested in the rat carrageenan paw edema assay to determine their ability to inhibit the acute inflammatory response. This assay is carried out as follows: 140-180 gm male Sprague-Dawley rats, in groups of 6 animals, are injected subcutaneously in the right paw with 0.1 ml of 1% carrageenan at zero time. Mercury plethysmographic readings (ml) of the paw are made at zero time and 3 hours later. Test compounds are suspended or dissolved in 0.5% methylcellulose and given perorally 1 hour prior to carrageenan administration. The increase in paw volume (edema in ml.) produced by the carrageenan is measured. […] Unpaired Student's t-test is used to determine statistical significance.

`N#Cc1ccc(NCCc2nc3cc(Cl)ccc3c3nn(-c4ccccc4)cc23)cc1` [Example 1, 4-[[2-(7-Chloro-2-phenyl-2H-pyrazolo-[4,3-c]quinolin-4-yl)ethyl]amino]benzonitrile] gave an inhibition at 0.1 µM [1] of 60 ± 13%, an inhibition at 1 µM [1] of 75 ± 5% and an inhibition at 10 µM [1] of 88 ± 2%. For the same molecule, the “% Inhibition of edema at 50 mg/kg (peroral)” value [2] was 38%.
`CCOC(=O)c1ccc(N(CCc2nc3cc(Cl)ccc3c3nn(-c4ccccc4)cc23)C(=O)Nc2ccc(Cl)cc2)cc1` [Example 11, 4-[[[(4-chlorophenyl)amino]carbonyl][2-(7-chloro-2-phenyl-2H-pyrazolo[4,3-c]quinolin-4-yl)ethyl]amino]benzoic acid ethyl ester, hydrate] showed an inhibition at 10 µM [1] of 47%.
Molecule `CCOC(=O)c1ccc(N(CCc2nc3cc(Cl)ccc3c3nn(-c4ccccc4)cc23)C(=O)Nc2ccccc2)cc1` [Example 9] has an inhibition at 10 µM [1] of 49%.
Molecule `CC(=O)Oc1ccccc1C(=O)O` [Aspirin, reference compound] has an ED50 [2] of 145 mg/kg.
`CCOC(=O)c1ccc(NCCc2nc3cc(Cl)ccc3c3nn(-c4ccccc4)cc23)cc1` [Example 2, 4-[[2-(7-Chloro-2-phenyl-2H-pyrazolo[4,3-c]quinolin-4-yl)ethyl]amino]benzoic acid ethyl ester] showed an inhibition at 0.1 µM [1] of 41 ± 10%, an inhibition at 1 µM [1] of 70 ± 4% and an inhibition at 10 µM [1] of 85 ± 3%. The “% Inhibition of edema at 50 mg/kg (peroral)” value [2] was 32%.
`N#Cc1ccc(N(CCc2nc3cc(Cl)ccc3c3nn(-c4ccccc4)cc23)C(=O)Nc2ccc(Cl)cc2)cc1` [Example 10, N'-(4-Chlorophenyl)-N-[2-(7-chloro-2-phenyl-2H-pyrazolo[4,3-c]quinolin-4-yl)ethyl]-N-(4-cyanophenyl)urea] was tested, and the inhibition at 10 µM [1] was 51%.
Work on `CCOC(=O)c1ccc(NCCc2nc3ccccc3c3nn(-c4ccccc4)cc23)cc1` [Example 7, 4-[[2-(2-phenyl-2H-pyrazolo[4,3-c]quinolin-4-yl)ethyl]amino]benzoic acid ethyl ester] yielded an inhibition at 10 µM [1] of 83%.
Work on `COc1ccc2c(c1)c(CC(=O)O)c(C)n2C(=O)c1ccc(Cl)cc1` [Indomethacin, reference compound] yielded an ED50 [2] of 3.7 mg/kg.
With `Clc1ccc2c(c1)nc(CCNc1ccc3ccccc3n1)c1cn(-c3ccccc3)nc12` [Example 4, 7-Chloro-2-phenyl-N-(2-quinolinyl)-2H-pyrazolo[4,3-c]quinoline-4-ethanamine] the inhibition at 10 µM [1] was ≤ 20%.
`Clc1ccc2c(c1)nc(CCNc1cnccn1)c1cn(-c3ccccc3)nc12` [Example 6, 7-Chloro-2-phenyl-N-(2-pyrazinyl)-2H-pyrazolo-[4,3-c]quinoline-4-ethanamine, hemihydrate] was tested, and the inhibition at 10 µM [1] was 60%.
In the case of `N#Cc1ccc(N(CCc2nc3cc(Cl)ccc3c3nn(-c4ccccc4)cc23)C(=O)Nc2ccccc2)cc1` [Example 8, N-[2-(7-chloro-2-phenyl-2H-pyrazolo[4,3-c]quinolin-4-yl)ethyl]-N-(4-cyanophenyl)-N'-phenylurea], the inhibition at 10 µM [1] is reported as ≤ 20%.
`Fc1ccc(NCCc2nc3cc(Cl)ccc3c3nn(-c4ccccc4)cc23)cc1` [Example 5, 7-Chloro-N-(4-fluorophenyl)-2-phenyl-2H-pyrazolo[4,3-c]quinoline-4-ethanamine] was tested, and the inhibition at 10 µM [1] was 14%.
Work on `CS(=O)(=O)c1ccc(NCCc2nc3cc(Cl)ccc3c3nn(-c4ccccc4)cc23)cc1` [Example 12, 7-Chloro-N-[(4-methylsulfonyl)phenyl]-2-phenyl-2H-pyrazolo[4,3-c]quinoline-4-ethanamine] yielded an inhibition at 10 µM [1] of 41%.
Molecule `Clc1ccc2c(c1)nc(CCNc1ncccn1)c1cn(-c3ccccc3)nc12` [Example 3, 7-Chloro-2-phenyl-N-(2-pyrimidinyl)-2H-pyrazolo[4,3-c]quinoline-4-ethanamine] has an inhibition at 1 µM [1] of 22% and an inhibition at 10 µM [1] of 79 ± 29%.
